Reference: ChEMBL document CHEMBL4706477, “Synthesis and Biological Evaluation of Calothrixins B and their Deoxygenated Analogues” (J Med Chem, 2018)
Active and inactive are the calls of the source. The rule behind the calls is not given here.

Key:
[1] = system: U-251; assay: cells; settings: Homo sapiens, U-251, 48 h
Description: Antiproliferative activity against human U-251 cells assessed as reduction in cell viability incubated for 48 hrs by sulphorhodamine B assay

[2] = system: MDA-MB-231; assay: cells; settings: Homo sapiens, MDA-MB-231, 48 h
Description: Antiproliferative activity against human MDA-MB-231 cells assessed as reduction in cell viability incubated for 48 hrs by sulphorhodamine B assay

[3] = system: HCT-116; assay: cells; settings: Homo sapiens, HCT-116, 48 h
Description: Antiproliferative activity against human HCT-116 cells assessed as reduction in cell viability incubated for 48 hrs by sulphorhodamine B assay

[4] = system: MCF7; assay: cells; settings: Homo sapiens, MCF7, 48 h
Description: Antiproliferative activity against human MCF7 cells assessed as reduction in cell viability incubated for 48 hrs by sulphorhodamine B assay

[5] = system: HeLa; assay: cells; settings: Homo sapiens, 48 h
Description: Antiproliferative activity against human HeLa cells assessed as reduction in cell viability incubated for 48 hrs by sulphorhodamine B assay

[6] = system: NCI-H460; assay: cells; settings: Homo sapiens, NCI-H460, 48 h
Description: Antiproliferative activity against human NCI-H460 cells assessed as reduction in cell viability incubated for 48 hrs by sulphorhodamine B assay

[7] = system: SiHa; assay: cells; settings: Homo sapiens, 48 h
Description: Antiproliferative activity against human SiHa cells assessed as reduction in cell viability incubated for 48 hrs by sulphorhodamine B assay

[8] = system: HCT-116; assay: cells; settings: Homo sapiens, HCT-116, 48 h; remark: listed apart in the source
Description: Antiproliferative activity against human HCT-116 p53-/- cells assessed as reduction in cell viability incubated for 48 hrs by sulphorhodamine B assay

[9] = system: Jurkat; assay: cells; settings: Homo sapiens, 48 h
Description: Antiproliferative activity against human Jurkat cells assessed as reduction in cell viability incubated for 48 hrs by sulphorhodamine B assay

[10] = system: HEK293; assay: Antiproliferative activity against human HEK293 cells assessed as reduction in cell viability incubated for 48 hrs by sulphorhodamine B assay; assay type: functional
[11] = system: A549; assay: Antiproliferative activity against human A549 cells assessed as reduction in cell viability incubated for 48 hrs by sulphorhodamine B assay; assay type: functional
[12] = target: T1, DNA topoisomerase 2-alpha (Homo sapiens, UniProt P11388); assay: Inhibition of recombinant human topoisomerase 2 assessed as decrease in relaxation of supercoiled pBlue-Script KS(+) plasmid DNA at 40 uM incubated for 30 mins by ethidium bromide staining based gel electrophoresis method relative to control
T1 sequence (P11388 whole entry): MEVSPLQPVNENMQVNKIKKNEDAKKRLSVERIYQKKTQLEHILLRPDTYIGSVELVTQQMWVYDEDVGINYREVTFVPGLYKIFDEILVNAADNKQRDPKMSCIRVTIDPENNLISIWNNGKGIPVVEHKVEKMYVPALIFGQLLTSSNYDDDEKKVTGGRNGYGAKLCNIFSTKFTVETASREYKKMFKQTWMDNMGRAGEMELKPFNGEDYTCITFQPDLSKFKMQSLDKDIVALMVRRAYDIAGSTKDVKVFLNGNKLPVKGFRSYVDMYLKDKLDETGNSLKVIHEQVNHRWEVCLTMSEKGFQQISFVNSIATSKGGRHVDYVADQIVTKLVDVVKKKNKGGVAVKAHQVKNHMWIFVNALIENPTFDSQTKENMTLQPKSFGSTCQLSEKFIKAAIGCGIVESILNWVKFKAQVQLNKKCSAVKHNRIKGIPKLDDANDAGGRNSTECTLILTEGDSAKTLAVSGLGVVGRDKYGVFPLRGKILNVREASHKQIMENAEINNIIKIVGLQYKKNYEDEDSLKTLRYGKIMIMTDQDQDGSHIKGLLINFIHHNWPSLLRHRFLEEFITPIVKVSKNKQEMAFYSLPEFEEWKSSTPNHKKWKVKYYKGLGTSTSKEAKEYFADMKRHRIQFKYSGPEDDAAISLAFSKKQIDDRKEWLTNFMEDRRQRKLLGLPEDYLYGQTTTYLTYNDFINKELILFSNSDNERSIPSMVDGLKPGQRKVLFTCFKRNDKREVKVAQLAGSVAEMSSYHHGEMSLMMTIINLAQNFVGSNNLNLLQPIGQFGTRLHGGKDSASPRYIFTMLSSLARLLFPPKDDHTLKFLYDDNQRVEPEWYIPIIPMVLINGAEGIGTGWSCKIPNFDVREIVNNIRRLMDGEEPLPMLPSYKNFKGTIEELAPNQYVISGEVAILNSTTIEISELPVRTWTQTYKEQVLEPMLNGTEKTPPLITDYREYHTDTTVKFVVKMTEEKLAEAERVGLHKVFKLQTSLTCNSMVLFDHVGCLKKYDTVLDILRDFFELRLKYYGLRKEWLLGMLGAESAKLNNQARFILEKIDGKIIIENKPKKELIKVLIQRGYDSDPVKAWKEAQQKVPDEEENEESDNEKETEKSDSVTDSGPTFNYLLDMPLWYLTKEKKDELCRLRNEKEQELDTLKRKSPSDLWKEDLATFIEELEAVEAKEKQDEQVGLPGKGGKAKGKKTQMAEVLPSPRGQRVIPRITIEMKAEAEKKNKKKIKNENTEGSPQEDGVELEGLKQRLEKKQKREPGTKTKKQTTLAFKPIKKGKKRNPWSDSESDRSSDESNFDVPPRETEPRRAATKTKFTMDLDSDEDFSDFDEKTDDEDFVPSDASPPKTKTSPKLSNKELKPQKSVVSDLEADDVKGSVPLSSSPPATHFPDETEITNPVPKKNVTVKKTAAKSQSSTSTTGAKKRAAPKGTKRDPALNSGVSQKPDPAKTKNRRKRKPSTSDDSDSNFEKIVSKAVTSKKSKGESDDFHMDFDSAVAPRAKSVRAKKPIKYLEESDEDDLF

[13] = target: T2, DNA topoisomerase 1 (Homo sapiens) (UniProt P11387); assay: Inhibition of human topoisomerase 1 assessed as induction of negative supercoiled DNA using relaxed pBlue-Script KS(+) plasmid DNA as substrate measured after 15 mins by agarose gel electrophoresis analysis; settings: dose 60-100 µM
T2 sequence (whole entry): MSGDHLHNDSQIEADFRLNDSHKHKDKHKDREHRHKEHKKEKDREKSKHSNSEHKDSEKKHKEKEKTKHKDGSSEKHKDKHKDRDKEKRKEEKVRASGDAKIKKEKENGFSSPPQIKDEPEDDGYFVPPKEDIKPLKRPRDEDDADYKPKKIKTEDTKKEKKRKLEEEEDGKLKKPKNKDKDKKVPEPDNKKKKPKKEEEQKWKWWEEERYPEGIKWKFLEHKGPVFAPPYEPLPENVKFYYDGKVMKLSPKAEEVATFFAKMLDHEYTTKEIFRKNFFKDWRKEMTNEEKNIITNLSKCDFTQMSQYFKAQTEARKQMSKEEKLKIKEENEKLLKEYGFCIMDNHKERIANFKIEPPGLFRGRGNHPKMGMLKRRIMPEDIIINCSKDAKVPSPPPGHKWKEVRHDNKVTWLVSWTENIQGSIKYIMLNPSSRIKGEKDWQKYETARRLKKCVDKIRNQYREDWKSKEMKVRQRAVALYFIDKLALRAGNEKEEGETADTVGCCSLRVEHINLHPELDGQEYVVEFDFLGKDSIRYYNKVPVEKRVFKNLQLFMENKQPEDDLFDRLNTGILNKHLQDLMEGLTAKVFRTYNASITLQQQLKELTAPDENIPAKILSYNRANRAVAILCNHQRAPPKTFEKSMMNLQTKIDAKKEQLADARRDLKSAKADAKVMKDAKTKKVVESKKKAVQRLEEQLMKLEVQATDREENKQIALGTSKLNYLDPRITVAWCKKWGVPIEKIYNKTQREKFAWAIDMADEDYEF

[14] = target: T1, DNA topoisomerase 2-alpha; assay: Inhibition of human topoisomerase 2 assessed as inhibition of etoposide-induced DNA cleavage complex formation by measuring linear DNA formation at 30 to 50 uM incubated for 30 mins using pRYG DNA as substrate by agarose gel electrophoresis analysis; settings: dose 30-50 µM
[15] = target: T1, DNA topoisomerase 2-alpha; assay: Inhibition of recombinant human topoisomerase 2 assessed as decrease in relaxation of supercoiled pBlue-Script KS(+) plasmid DNA at 200 uM incubated for 30 mins by ethidium bromide staining based gel electrophoresis method
[16] = target: T1, DNA topoisomerase 2-alpha; assay: Inhibition of recombinant human topoisomerase 2 assessed as decrease in relaxation of supercoiled pBlue-Script KS(+) plasmid DNA incubated for 30 mins by ethidium bromide staining based gel electrophoresis method
[17] = system: Calf thymus DNA; assay: Binding affinity to calf thymus DNA assessed as hypochromic effect at 3*10^-5 mol/L by double beam UV-Vis spectroscopic analysis; assay type: nucleic-acid assay; settings: Bos taurus

| Structure (SMILES) | GI50 [1] | GI50 [2] | GI50 [3] | GI50 [4] | GI50 [5] | GI50 [6] | GI50 [7] | GI50 [8] | GI50 [9] | GI50 [10] | GI50 [11] | inhibition [12] | Activity [13] | inhibition [14] | inhibition [15] | IC50 [16] | IC90 [16] | inhibition [16] | Activity [17] |
| --- | --- | --- | --- | --- | --- | --- | --- | --- | --- | --- | --- | --- | --- | --- | --- | --- | --- | --- | --- |
| Nc1nc2ccccc2c2cc3[nH]c4ccccc4c3cc12 | 1.05 µM | 1 µM | 1 µM | 1 µM | 0.8 µM | 1 µM | 1.05 µM |  |  |  |  |  |  |  |  |  |  |  |  |
| COc1cccc2c3c(cnc12)C(=O)c1c([nH]c2ccccc12)C3=O | 1.83 µM | 0.31 µM | 0.33 µM | 0.6 µM | 0.39 µM | > 4 µM | > 4 µM | > 4 µM | > 4 µM |  |  |  |  |  |  |  |  |  |  |
| Clc1ccc2c(c1)ncc1cc3c(cc12)[nH]c1ccccc13 | > 4 µM | > 4 µM | 28 µM | > 4 µM | 0.43 µM | 10 µM | > 4 µM |  | > 4 µM | > 4 µM | > 4 µM |  |  |  |  |  |  |  |  |
| Cc1c2cnc3ccccc3c2cc2[nH]c3ccccc3c12 | > 4 µM | > 4 µM | 15 µM | > 4 µM | 0.36 µM | 10.5 µM | > 4 µM |  | > 4 µM | > 4 µM | > 4 µM | 98% | Dose-dependent effect | Active | 100% | 19.1 µM | 28.8 µM | Dose-dependent effect |  |
| O=C1c2cnc3c(Cl)cccc3c2C(=O)c2[nH]c3ccccc3c21 | > 4 µM | > 4 µM | > 4 µM | > 4 µM | > 4 µM | > 4 µM | > 4 µM | > 4 µM | > 4 µM |  |  |  |  |  |  |  |  |  |  |
| CC[C@@]1(O)C(=O)OCc2c1cc1n(c2=O)Cc2cc3ccccc3nc2-1 [CAMPTOTHECIN] | 0.01 µM | 0.4 µM | 0.05 µM | 0.06 µM | 0.19 µM | 0.0057 µM | 0.55 µM | 0.195 µM | 0.06 µM |  |  |  |  |  |  |  |  |  |  |
| COc1ccc2ncc3c(c2c1)C(=O)c1[nH]c2ccccc2c1C3=O | > 4 µM | > 4 µM | 0.63 µM | > 4 µM | > 4 µM | > 4 µM | > 4 µM | > 4 µM | > 4 µM |  |  |  |  |  |  |  |  |  |  |
| Cc1c2cnc3cc(F)ccc3c2cc2[nH]c3ccccc3c12 | > 4 µM | > 4 µM | 30 µM | 0.27 µM | 0.05 µM | 0.04 µM | > 4 µM |  | > 4 µM | > 4 µM | > 4 µM |  |  |  |  |  |  |  |  |
| O=C1c2[nH]c3ccccc3c2C(=O)c2cnc3ccc(Cl)cc3c21 | 0.5 µM | 0.17 µM | 0.42 µM | 0.35 µM | 0.5 µM | 0.7 µM | 1.67 µM | 1.5 µM | 1.4 µM |  |  |  |  |  |  |  |  |  |  |
| Nc1nc2cc(F)ccc2c2cc3[nH]c4ccccc4c3cc12 | 1.2 µM | 1.25 µM | 1.2 µM | 0.13 µM | 0.01 µM | 0.14 µM | 1.35 µM |  |  |  |  |  |  |  |  |  |  |  |  |
| O=C1c2[nH]c3ccccc3c2C(=O)c2cnc3cc(F)c(Cl)cc3c21 | > 4 µM | > 4 µM | > 4 µM | 1.35 µM | 2 µM | > 4 µM | > 4 µM | > 4 µM | > 4 µM |  |  |  |  |  |  |  |  |  |  |
| COc1cc2ncc3c(c2cc1OC)C(=O)c1[nH]c2ccccc2c1C3=O | > 4 µM | > 4 µM | > 4 µM | 0.36 µM | > 4 µM | > 4 µM | > 4 µM | > 4 µM | > 4 µM |  |  |  |  |  |  |  |  |  |  |
| Nc1nc2cc(Cl)ccc2c2cc3[nH]c4ccccc4c3cc12 | 1.2 µM | 0.9 µM | 1 µM | 0.95 µM | 0.53 µM | 1.05 µM | 1.1 µM |  |  |  |  |  |  |  |  |  |  |  | 38% |
| O=C1c2cnc3cccc(Cl)c3c2C(=O)c2[nH]c3ccccc3c21 | > 4 µM | > 4 µM | 3.5 µM | 0.8 µM | > 4 µM | > 4 µM | > 4 µM | > 4 µM | > 4 µM |  |  |  |  |  |  |  |  |  |  |
| O=C1c2[nH]c3ccccc3c2C(=O)c2cnc3cc(F)c(Br)cc3c21 | > 4 µM | 0.4 µM | > 4 µM | 0.66 µM | 0.27 µM | 2.25 µM | > 4 µM | > 4 µM | > 4 µM |  |  |  |  |  |  |  |  |  |  |
| c1ccc2c(c1)ccc1cc3c(cc12)[nH]c1ccccc13 | > 4 µM | > 4 µM | > 50 µM | > 4 µM | > 4 µM | > 50 µM | > 4 µM |  | > 4 µM | > 4 µM | > 4 µM |  |  |  |  |  |  |  |  |
| O=C1c2cnc3c(Cl)cc(Cl)cc3c2C(=O)c2[nH]c3ccccc3c21 | 1.5 µM | 0.2 µM | 1.2 µM | 0.5 µM | 0.5 µM | 0.73 µM | 1.8 µM | 2 µM | 2.6 µM |  |  |  |  |  |  |  |  |  |  |
| O=C1c2[nH]c3ccccc3c2C(=O)c2cnc3cc4c(cc3c21)OCO4 | > 4 µM | > 4 µM | > 4 µM | 0.11 µM | > 4 µM | > 4 µM | > 4 µM | > 4 µM | > 4 µM |  |  |  |  |  |  |  |  |  |  |
| Nc1nc2ccccc2c2cc3c(cc12)[nH]c1ccccc13 | 0.65 µM | 1.1 µM | 1.05 µM | 1 µM | 1.4 µM | 1.05 µM | 1.3 µM |  |  |  |  |  |  |  |  |  |  |  |  |
| O=C1c2[nH]c3ccccc3c2C(=O)c2cnc3cc(Br)ccc3c21 | 2 µM | 1 µM | 1.5 µM | 0.6 µM | 0.21 µM | 1.27 µM | > 4 µM | 2.6 µM | 1.5 µM |  |  |  |  |  |  |  |  |  |  |
| c1ccc2c(c1)ncc1cc3[nH]c4ccccc4c3cc12 | > 4 µM | > 4 µM | > 50 µM | > 4 µM | 1.4 µM | 10 µM | > 4 µM |  | > 4 µM | > 4 µM | > 4 µM |  |  |  |  |  |  |  |  |
| O=C1c2[nH]c3ccccc3c2C(=O)c2cnc3cc(Cl)c(Cl)cc3c21 | > 4 µM | 1.8 µM | > 4 µM | > 4 µM | 1.8 µM | > 4 µM | > 4 µM | > 4 µM | > 4 µM |  |  |  |  |  |  |  |  |  |  |
| O=C1c2[nH]c3ccccc3c2C(=O)c2cnc3ccc(Br)cc3c21 | 0.6 µM | 0.27 µM | 0.7 µM | 0.22 µM | 0.29 µM | 1.1 µM | 1.4 µM | 1.13 µM | 1.5 µM |  |  |  |  |  |  |  |  |  |  |
| O=C1c2[nH]c3ccccc3c2C(=O)c2cnc3cc(Cl)ccc3c21 | 2.83 µM | 0.36 µM | 1.5 µM | 0.53 µM | 0.07 µM | 1.4 µM | 1.6 µM | 2.6 µM | 3.55 µM |  |  |  |  |  |  |  |  |  |  |
